The text below walks through data of ChEMBL document CHEMBL1142494, “Pharmacophore modeling and molecular docking led to the discovery of inhibitors of human immunodeficiency virus-1 replication targeting the human cellular aspartic acid-glutamic acid-alanine-aspartic acid box polypeptide 3” (J Med Chem, 2008).

Active and inactive are the calls of the source. The rule behind the calls is not given here.

Sequence of Polynucleotide kinase (Enterobacteria phage T4) (P06855 whole entry): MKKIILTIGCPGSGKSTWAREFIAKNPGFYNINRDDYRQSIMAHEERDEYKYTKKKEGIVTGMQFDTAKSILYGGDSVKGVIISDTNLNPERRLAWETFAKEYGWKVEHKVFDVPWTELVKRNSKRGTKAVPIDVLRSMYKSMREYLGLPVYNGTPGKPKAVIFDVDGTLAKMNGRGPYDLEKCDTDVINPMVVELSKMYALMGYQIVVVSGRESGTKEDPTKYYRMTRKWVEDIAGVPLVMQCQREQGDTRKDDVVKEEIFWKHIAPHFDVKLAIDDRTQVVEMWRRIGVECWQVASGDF

One experiment concerns the target Polynucleotide kinase (Enterobacteria phage T4) (UniProt P06855). Nature of the experiment: Inhibition of T4 polynucleotide kinase upto 100 uM. The following applies: Tequatrovirus T4.
As to `O=C(CCN1C(=O)/C(=C/c2cccc(Br)c2)SC1=S)Nc1ccccc1O`, the outcome was inactive.

A further experiment deals with ATP-dependent RNA helicase DDX3X (Homo sapiens) (UniProt O00571). Nature of the experiment: Inhibition of ATPase activity in human recombinant DDX3 expressed in Escherichia coli by luciferase-based luminescence assay in presence of ATP.
Sequence of ATP-dependent RNA helicase DDX3X (Homo sapiens) (O00571 2-662 limits assumed): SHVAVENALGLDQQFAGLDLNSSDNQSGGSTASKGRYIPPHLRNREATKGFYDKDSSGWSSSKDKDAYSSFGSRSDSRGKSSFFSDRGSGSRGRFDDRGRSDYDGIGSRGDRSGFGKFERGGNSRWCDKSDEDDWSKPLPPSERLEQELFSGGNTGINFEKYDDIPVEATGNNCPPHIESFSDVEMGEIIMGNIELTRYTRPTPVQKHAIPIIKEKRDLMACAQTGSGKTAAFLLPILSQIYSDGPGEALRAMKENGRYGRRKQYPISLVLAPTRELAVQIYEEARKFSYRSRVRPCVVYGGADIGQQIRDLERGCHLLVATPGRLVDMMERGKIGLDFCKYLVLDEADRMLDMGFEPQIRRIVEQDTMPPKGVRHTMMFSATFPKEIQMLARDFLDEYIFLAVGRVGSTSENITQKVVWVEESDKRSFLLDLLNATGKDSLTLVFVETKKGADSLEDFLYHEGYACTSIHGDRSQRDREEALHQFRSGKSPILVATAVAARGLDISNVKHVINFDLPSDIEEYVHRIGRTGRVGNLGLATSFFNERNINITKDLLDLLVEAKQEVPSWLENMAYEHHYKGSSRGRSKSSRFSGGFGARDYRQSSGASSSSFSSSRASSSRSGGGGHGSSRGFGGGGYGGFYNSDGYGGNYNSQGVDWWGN
Conditions: not given
With `N#C/C(=C\c1ccc(-c2ccccc2[N+](=O)[O-])o1)c1nn(CCO)c(N)c1C#N`, the result was inactive.
Regarding `COc1ccccc1NC(=O)CCN1C(=O)/C(=C/c2cccc(Br)c2)SC1=S`, the outcome was inactive.
As for `O=C(CN1C(=O)/C(=C/c2cccc(Br)c2)SC1=S)Nc1cccc(O)c1`, the result was inactive.
On to `O=C(CCN1C(=O)/C(=C/c2ccccc2Cl)SC1=S)Nc1ccccc1O`, for which the result was inactive.
As for `O=C(CCN1C(=O)/C(=C/c2ccccc2)SC1=S)Nc1cccc(O)c1`, the outcome was inactive.
With `O=C(CCN1C(=O)/C(=C/c2ccccc2)SC1=S)Nc1ccccc1O`, the outcome was inactive.
In the case of `N#C/C(=C\c1ccc(-c2ccccc2Cl)o1)c1nn(-c2ccccc2)c(N)c1C#N`, the result was inactive.
On to `Cc1ccc(-c2ccc(/C=C(\C#N)c3n[nH]c(N)c3C#N)o2)c([N+](=O)[O-])c1`, for which the result was inactive.
Turning to `Cc1ccc(/C=C2\SC(=S)N(CCC(=O)Nc3ccccc3O)C2=O)cc1`, the result was inactive.
Take `N#C/C(=C\c1ccc(-c2ccc(C(=O)O)cc2)o1)c1n[nH]c(N)c1C#N`: the result was inactive.
As to `Cc1ccc(/C=C2\SC(=S)N(CCC(=O)Nc3cccc(Cl)c3O)C2=O)cc1`, the result was inactive.

The target of another experiment is Proto-oncogene tyrosine-protein kinase Src (Homo sapiens) (UniProt P12931). The experiment can be described thus: Inhibition of c-Src upto 100 uM.
Sequence of Proto-oncogene tyrosine-protein kinase Src (Homo sapiens) (P12931 2-536 limits assumed): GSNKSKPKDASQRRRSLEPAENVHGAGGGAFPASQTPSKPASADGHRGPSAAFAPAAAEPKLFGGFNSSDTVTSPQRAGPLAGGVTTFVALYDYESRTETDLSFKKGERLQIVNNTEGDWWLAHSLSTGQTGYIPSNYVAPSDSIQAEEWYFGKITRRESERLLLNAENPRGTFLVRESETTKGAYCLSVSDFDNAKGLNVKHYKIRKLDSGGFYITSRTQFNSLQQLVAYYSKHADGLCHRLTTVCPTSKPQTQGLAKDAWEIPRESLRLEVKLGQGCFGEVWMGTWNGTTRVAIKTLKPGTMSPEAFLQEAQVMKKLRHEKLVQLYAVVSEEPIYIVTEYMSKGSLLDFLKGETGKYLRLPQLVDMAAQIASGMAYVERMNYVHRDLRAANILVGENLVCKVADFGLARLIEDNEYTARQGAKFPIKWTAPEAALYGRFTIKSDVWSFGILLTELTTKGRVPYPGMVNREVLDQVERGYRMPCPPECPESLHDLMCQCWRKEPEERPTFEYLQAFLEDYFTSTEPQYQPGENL
Conditions: not given
In the case of `O=C(CCN1C(=O)/C(=C/c2cccc(Br)c2)SC1=S)Nc1ccccc1O`, the outcome was inactive.

Another experiment concerns Hepacivirus hominis. Nature of the experiment: Inhibition of HCV NS3 ATPase/helicase upto 100 uM.
Conditions: not given
For `O=C(CCN1C(=O)/C(=C/c2cccc(Br)c2)SC1=S)Nc1ccccc1O`, the outcome was inactive.
